Test results from the supplement of paper PMC10307832.

Columns and labels:
Experiment in all cases: relative viability (nuclei count vs DMSO), 5 days (fraction); higher = more cells survive
Carboplatin + Luminespib = compound: C1CC(C1)(C(=O)O)C(=O)O.[NH2-].[NH2-].[Pt+2] [Carboplatin] + CCNC(=O)c1noc(-c2cc(C(C)C)c(O)cc2O)c1-c1ccc(CN2CCOCC2)cc1 [Luminespib] (partner 0.01 µM)
Method in brief: (§1)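 A single step with final 0.05% Triton X-100, 1% formaldehyde and 1 ug/ml Hoechst fixed the cells and stained nuclei 5 days after treatment. Lung cancer cell lines in 1536-well plates had been treated by pin tool the day after seeding with one drug alone or a fixed anchor-drug dose plus five library-drug doses (not always all listed) in √10 steps, and nuclei were counted on 4× images. Relative viability is the ratio of nuclei in treated wells to nuclei in vehicle wells, taken as the median of duplicate plates.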

Carboplatin + Dasatinib = compound: C1CC(C1)(C(=O)O)C(=O)O.[NH2-].[NH2-].[Pt+2] [Carboplatin] + Cc1nc(Nc2ncc(C(=O)Nc3c(C)cccc3Cl)s2)cc(N2CCN(CCO)CC2)n1 [Dasatinib] (partner 0.075 µM)
Method in brief: as §1

GSK126 + OSI-027 = compound: CC[C@H](C)N1C=C(C2=C(C=C(C=C21)C3=CN=C(C=C3)N4CCNCC4)C(=O)NCC5=C(C=C(NC5=O)C)C)C [GSK126] + COc1cccc2cc(-c3nc([C@H]4CC[C@H](C(=O)O)CC4)n4ncnc(N)c34)[nH]c12 [OSI-027] (partner 0.5 µM)
Method in brief: as §1

MLN4924 + Vorinostat = compound: NS(=O)(=O)OC[C@@H]1C[C@@H](n2ccc3c(N[C@H]4CCc5ccccc54)ncnc32)C[C@@H]1O [MLN4924] + O=C(CCCCCCC(=O)Nc1ccccc1)NO [Vorinostat] (partner 1 µM)
Method in brief: as §1

Cell Line | relative viability (Carboplatin + Luminespib; first compound 0.08 µM) | relative viability (Carboplatin + Luminespib; first compound 0.253 µM) | relative viability (Carboplatin + Luminespib; first compound 0.8 µM) | relative viability (Carboplatin + Luminespib; first compound 2.53 µM) | relative viability (Carboplatin + Luminespib; first compound 8 µM) | relative viability (Carboplatin + Dasatinib; first compound 0.08 µM) | relative viability (Carboplatin + Dasatinib; first compound 0.253 µM) | relative viability (Carboplatin + Dasatinib; first compound 0.8 µM) | relative viability (Carboplatin + Dasatinib; first compound 2.53 µM) | relative viability (Carboplatin + Dasatinib; first compound 8 µM) | relative viability (GSK126 + OSI-027; first compound 0.08 µM) | relative viability (GSK126 + OSI-027; first compound 0.253 µM) | relative viability (GSK126 + OSI-027; first compound 0.8 µM) | relative viability (GSK126 + OSI-027; first compound 2.53 µM) | relative viability (GSK126 + OSI-027; first compound 8 µM) | relative viability (MLN4924 + Vorinostat; first compound 0.04 µM) | relative viability (MLN4924 + Vorinostat; first compound 0.1265 µM) | relative viability (MLN4924 + Vorinostat; first compound 0.4 µM) | relative viability (MLN4924 + Vorinostat; first compound 1.265 µM) | relative viability (MLN4924 + Vorinostat; first compound 4 µM)
NCI-H460 | 0.0398 | 0.0303 | 0.0396 | 0.0341 | 0.0233 | 0.551 | 0.429 | 0.464 | 0.427 | 0.183 | 0.843 | 0.615 | 0.622 | 0.718 | 0.656 | 0.679 | 0.827 | 0.797 | 0.115 | 0.0271
NCI-H520 | 0.256 | 0.209 | 0.183 | 0.21 | 0.211 | 0.216 | 0.239 | 0.185 | 0.263 | 0.193 | 0.313 | 0.269 | 0.289 | 0.307 | 0.314 | 0.499 | 0.499 | 0.321 | 0.177 | 0.223
NCI-H522 | 1.05 | 1.38 | 0.851 | 0.904 | 0.835 | 0.751 | 0.88 | 0.859 | 0.911 | 0.886 | 0.651 | 0.731 | 0.779 | 0.638 | 0.686 | 0.704 | 0.726 | 0.567 | 0.344 | 0.378
NCI-H596 | 1.02 | 1 | 0.4 | 0.342 | 0.746 | 0.725 | 0.72 | 0.697 | 0.525 | 0.539 | 0.895 | 0.701 | 0.798 | 0.754 | 0.714 | 0.471 | 0.597 | 0.601 | 0.382 | 0.418
NCI-H647 | 0.169 | 0.239 | 0.154 | 0.185 | 0.13 | 0.196 | 0.18 | 0.216 | 0.164 | 0.161 | 0.69 | 0.528 | 0.63 | 0.649 | 0.692 | 0.414 | 0.391 | 0.0893 | 0.0464 | 0.0578
NCI-H650 | 0.757 | 0.904 | 0.655 | 0.548 | 0.327 | 0.472 | 0.47 | 0.399 | 0.423 | 0.371 | 0.49 | 0.529 | 0.489 | 0.497 | 0.583 | 0.446 | 0.306 | 0.169 | 0.126 | 0.143
NCI-H661 | 0.892 | 0.901 | 0.854 | 0.874 | 0.744 | 1.06 | 0.923 | 0.844 | 0.82 | 0.746 | 0.769 | 0.737 | 0.762 | 0.746 | 0.74 | 0.601 | 0.619 | 0.389 | 0.317 | 0.382
NCI-H727 | 0.377 | 0.3 | 0.432 | 0.24 | 0.312 | 0.472 | 0.356 | 0.374 | 0.364 | 0.376 | 0.653 | 0.686 | 0.599 | 0.603 | 0.627 | 1.17 | 0.847 | 0.819 | 0.477 | 0.451
NCI-H838 | 0.284 | 0.291 | 0.195 | 0.192 | 0.188 | 0.306 | 0.3 | 0.331 | 0.319 | 0.275 | 0.43 | 0.403 | 0.309 | 0.424 | 0.379 | 0.631 | 0.4 | 0.284 | 0.168 | 0.151
NCI-H1355 | 0.826 | 0.814 | 0.765 | 0.588 | 0.537 | 0.729 | 0.759 | 0.776 | 0.667 | 0.656 | 0.412 | 0.362 | 0.418 | 0.453 | 0.44 | 0.592 | 0.629 | 0.496 | 0.236 | 0.227
NCI-H1395 | 0.864 | 0.543 | 0.731 | 0.458 | 0.331 | 0.423 | 0.367 | 0.392 | 0.42 | 0.516 | 0.679 | 0.561 | 0.648 | 0.704 | 0.649 | 0.556 | 0.766 | 0.523 | 0.341 | 0.361
NCI-H1437 | 1.14 | 1.14 | 0.994 | 1.03 | 0.97 | 0.619 | 0.411 | 0.428 | 0.411 | 0.325 | 0.913 | 0.854 | 0.77 | 0.844 | 0.828 | 0.769 | 0.621 | 0.385 | 0.229 | 0.193
NCI-H1650 | 0.212 | 0.217 | 0.189 | 0.215 | 0.196 | 0.31 | 0.357 | 0.321 | 0.273 | 0.299 | 0.834 | 0.594 | 0.703 | 0.684 | 0.681 | 0.411 | 0.352 | 0.22 | 0.109 | 0.176
NCI-H1651 | 0.829 | 0.782 | 0.627 | 0.424 | 0.229 | 0.436 | 0.397 | 0.344 | 0.435 | 0.216 | 0.718 | 0.755 | 0.699 | 0.789 | 0.697 | 0.585 | 0.613 | 0.638 | 0.474 | 0.239
NCI-H1666 | 1.02 | 1.02 | 0.814 | 0.824 | 0.702 | 0.836 | 0.774 | 0.589 | 0.533 | 0.561 | 0.886 | 0.868 | 0.986 | 0.789 | 0.822 | 0.697 | 0.623 | 0.653 | 0.443 | 0.444
NCI-H1734 | 0.21 | 0.236 | 0.193 | 0.188 | 0.174 | 0.471 | 0.449 | 0.454 | 0.463 | 0.443 | 0.681 | 0.532 | 0.665 | 0.579 | 0.602 | 0.792 | 0.565 | 0.208 | 0.132 | 0.113
NCI-H1755 | 0.419 | 0.7 | 0.41 | 0.595 | 0.366 | 0.451 | 0.441 | 0.395 | 0.462 | 0.452 | 0.747 | 0.725 | 0.75 | 0.8 | 0.689 | 0.711 | 0.494 | 0.466 | 0.338 | 0.261
NCI-H1793 | 0.153 | 0.172 | 0.187 | 0.185 | 0.17 | 0.432 | 0.384 | 0.394 | 0.355 | 0.381 | 0.288 | 0.241 | 0.318 | 0.248 | 0.32 | 0.665 | 0.662 | 0.886 | 0.328 | 0.205
NCI-H1915 | 0.867 | 0.876 | 0.631 | 0.613 | 0.328 | 0.288 | 0.304 | 0.315 | 0.305 | 0.255 | 0.609 | 0.622 | 0.704 | 0.655 | 0.594 | 0.52 | 0.503 | 0.339 | 0.149 | 0.143
NCI-H1944 | 0.881 | 0.661 | 0.661 | 0.452 | 0.389 | 0.235 | 0.206 | 0.226 | 0.22 | 0.174 | 0.456 | 0.423 | 0.423 | 0.369 | 0.449 | 0.543 | 0.539 | 0.613 | 0.203 | 0.158
NCI-H1975 | 0.227 | 0.227 | 0.17 | 0.18 | 0.113 | 0.433 | 0.374 | 0.358 | 0.366 | 0.375 | 0.867 | 0.81 | 0.747 | 0.749 | 0.722 | 0.706 | 0.704 | 0.993 | 0.559 | 0.248
NCI-H1993 | 1.13 | 0.812 | 0.818 | 0.884 | 0.698 | 0.517 | 0.591 | 0.522 | 0.559 | 0.601 | 0.492 | 0.53 | 0.557 | 0.542 | 0.541 | 0.645 | 0.26 | 0.29 | 0.309 | 0.314
NCI-H2009 | 1.06 | 1.05 | 0.986 | 0.935 | 0.581 | 0.321 | 0.286 | 0.29 | 0.291 | 0.249 | 0.789 | 0.544 | 0.64 | 0.682 | 0.72 | 0.584 | 0.345 | 0.214 | 0.106 | 0.103
NCI-H2023 | 0.774 | 0.715 | 0.668 | 0.281 | 0.172 | 0.584 | 0.635 | 0.471 | 0.29 | 0.149 | 0.595 | 0.388 | 0.447 | 0.495 | 0.527 | 0.548 | 0.457 | 0.166 | 0.0535 | 0.0695
NCI-H2085 | 0.454 | 0.419 | 0.494 | 0.488 | 0.377 | 0.243 | 0.293 | 0.243 | 0.239 | 0.255 | 0.919 | 0.716 | 0.839 | 0.683 | 0.812 | 0.769 | 0.829 | 0.837 | 0.635 | 0.45
NCI-H2087 | 0.158 | 0.168 | 0.121 | 0.138 | 0.165 | 0.85 | 0.932 | 0.833 | 0.689 | 0.613 | 0.674 | 0.466 | 0.595 | 0.706 | 0.786 | 0.784 | 0.43 | 0.135 | 0.0537 | 0.125
